Results on 41 compounds are retold here after ChEMBL document CHEMBL4825702, “5-Aminonaphthalene derivatives as selective nonnucleoside nuclear receptor binding SET domain-protein 2 (NSD2) inhibitors for the treatment of multiple myeloma” (Eur J Med Chem, 2021).

The target in test [1] is T1, Histone-lysine N-methyltransferase NSD2 (Homo sapiens, UniProt O96028).
T1 sequence (O96028 whole entry): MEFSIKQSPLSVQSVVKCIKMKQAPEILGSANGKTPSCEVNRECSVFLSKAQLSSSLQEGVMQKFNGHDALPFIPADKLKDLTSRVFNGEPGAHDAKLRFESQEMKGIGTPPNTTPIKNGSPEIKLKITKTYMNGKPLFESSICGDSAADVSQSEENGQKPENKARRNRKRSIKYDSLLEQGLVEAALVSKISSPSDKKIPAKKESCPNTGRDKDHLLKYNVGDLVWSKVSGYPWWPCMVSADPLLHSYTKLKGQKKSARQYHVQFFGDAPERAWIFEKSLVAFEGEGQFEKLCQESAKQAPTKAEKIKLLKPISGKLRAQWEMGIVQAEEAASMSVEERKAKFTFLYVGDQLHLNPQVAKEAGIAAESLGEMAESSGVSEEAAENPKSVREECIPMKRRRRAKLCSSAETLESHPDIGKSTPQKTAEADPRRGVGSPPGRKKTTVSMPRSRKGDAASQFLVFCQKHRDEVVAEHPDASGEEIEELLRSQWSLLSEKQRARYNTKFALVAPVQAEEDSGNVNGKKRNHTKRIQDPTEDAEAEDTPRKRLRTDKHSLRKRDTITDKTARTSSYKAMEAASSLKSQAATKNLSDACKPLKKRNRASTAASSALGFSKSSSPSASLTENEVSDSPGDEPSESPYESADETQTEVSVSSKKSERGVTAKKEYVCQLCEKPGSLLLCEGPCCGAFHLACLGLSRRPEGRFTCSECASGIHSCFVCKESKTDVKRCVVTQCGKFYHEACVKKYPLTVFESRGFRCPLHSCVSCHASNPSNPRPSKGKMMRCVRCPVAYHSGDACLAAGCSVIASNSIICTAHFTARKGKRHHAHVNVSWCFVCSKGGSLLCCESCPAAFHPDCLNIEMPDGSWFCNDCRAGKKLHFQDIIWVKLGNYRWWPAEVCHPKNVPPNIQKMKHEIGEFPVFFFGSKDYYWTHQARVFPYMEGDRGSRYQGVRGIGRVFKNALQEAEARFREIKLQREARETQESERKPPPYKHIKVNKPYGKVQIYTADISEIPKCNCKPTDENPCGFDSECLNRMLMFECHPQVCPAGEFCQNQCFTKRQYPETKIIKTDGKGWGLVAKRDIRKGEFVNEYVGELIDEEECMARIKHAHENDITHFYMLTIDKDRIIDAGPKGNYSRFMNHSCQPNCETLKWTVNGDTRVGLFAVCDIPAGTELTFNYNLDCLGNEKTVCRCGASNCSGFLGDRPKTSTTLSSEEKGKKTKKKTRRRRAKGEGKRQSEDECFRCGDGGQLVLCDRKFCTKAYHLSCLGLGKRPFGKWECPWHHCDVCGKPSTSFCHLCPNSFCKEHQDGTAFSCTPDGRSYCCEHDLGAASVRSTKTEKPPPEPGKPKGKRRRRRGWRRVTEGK
The experiment in a line: Inhibition of recombinant human N-terminal GST-tagged NSD2 CD (941 to 1240 residues) expressed in Escherichia coli using SAM as substrate in presence of nucleosomes by AlphaLISA method.

Test [2] concerns the target T1, Histone-lysine N-methyltransferase NSD2. The experiment in a line: Inhibition of human NSD2-SET using histone H3.1 as substrate incubated for 1 hr by Western blot analysis. For orientation: A western blot detects proteins with antibodies after separation by electrophoresis.
Test [3] deals with Histone-lysine N-methyltransferase NSD3 (Homo sapiens, UniProt Q9BZ95). In words: Inhibition of human NSD3-SET using histone H3.1 as substrate incubated for 1 hr by Western blot analysis.
For test [4], the target named is Histone-lysine N-methyltransferase, H3 lysine-36 specific (Homo sapiens, UniProt Q96L73). The experiment in a line: Inhibition of human NSD1-SET using histone H3.1 as substrate incubated for 1 hr by Western blot analysis.
The target in test [5] is T1, Histone-lysine N-methyltransferase NSD2. The experiment in a line: Inhibition of NSD2 (unknown origin).
Test [6] has the same target. The experiment in a line: Inhibition of NSD2 (953 to 1240 residues) (unknown origin) using SAM as substrate in presence of nucleosome by AlphaScreen assay. In general terms: Alpha assays give light when donor and acceptor beads are brought close together.
Test [7] shares this target. In words: Binding affinity to MMSET (973 to 1203 residues) (unknown origin) expressed in Escherichia coli BL21 DE3 by ITC analysis. Background: ITC needs no label: the signal is the heat of the interaction.

Histone-lysine N-methyltransferase, H3 lysine-36 specific, sequence (Q96L73 whole entry): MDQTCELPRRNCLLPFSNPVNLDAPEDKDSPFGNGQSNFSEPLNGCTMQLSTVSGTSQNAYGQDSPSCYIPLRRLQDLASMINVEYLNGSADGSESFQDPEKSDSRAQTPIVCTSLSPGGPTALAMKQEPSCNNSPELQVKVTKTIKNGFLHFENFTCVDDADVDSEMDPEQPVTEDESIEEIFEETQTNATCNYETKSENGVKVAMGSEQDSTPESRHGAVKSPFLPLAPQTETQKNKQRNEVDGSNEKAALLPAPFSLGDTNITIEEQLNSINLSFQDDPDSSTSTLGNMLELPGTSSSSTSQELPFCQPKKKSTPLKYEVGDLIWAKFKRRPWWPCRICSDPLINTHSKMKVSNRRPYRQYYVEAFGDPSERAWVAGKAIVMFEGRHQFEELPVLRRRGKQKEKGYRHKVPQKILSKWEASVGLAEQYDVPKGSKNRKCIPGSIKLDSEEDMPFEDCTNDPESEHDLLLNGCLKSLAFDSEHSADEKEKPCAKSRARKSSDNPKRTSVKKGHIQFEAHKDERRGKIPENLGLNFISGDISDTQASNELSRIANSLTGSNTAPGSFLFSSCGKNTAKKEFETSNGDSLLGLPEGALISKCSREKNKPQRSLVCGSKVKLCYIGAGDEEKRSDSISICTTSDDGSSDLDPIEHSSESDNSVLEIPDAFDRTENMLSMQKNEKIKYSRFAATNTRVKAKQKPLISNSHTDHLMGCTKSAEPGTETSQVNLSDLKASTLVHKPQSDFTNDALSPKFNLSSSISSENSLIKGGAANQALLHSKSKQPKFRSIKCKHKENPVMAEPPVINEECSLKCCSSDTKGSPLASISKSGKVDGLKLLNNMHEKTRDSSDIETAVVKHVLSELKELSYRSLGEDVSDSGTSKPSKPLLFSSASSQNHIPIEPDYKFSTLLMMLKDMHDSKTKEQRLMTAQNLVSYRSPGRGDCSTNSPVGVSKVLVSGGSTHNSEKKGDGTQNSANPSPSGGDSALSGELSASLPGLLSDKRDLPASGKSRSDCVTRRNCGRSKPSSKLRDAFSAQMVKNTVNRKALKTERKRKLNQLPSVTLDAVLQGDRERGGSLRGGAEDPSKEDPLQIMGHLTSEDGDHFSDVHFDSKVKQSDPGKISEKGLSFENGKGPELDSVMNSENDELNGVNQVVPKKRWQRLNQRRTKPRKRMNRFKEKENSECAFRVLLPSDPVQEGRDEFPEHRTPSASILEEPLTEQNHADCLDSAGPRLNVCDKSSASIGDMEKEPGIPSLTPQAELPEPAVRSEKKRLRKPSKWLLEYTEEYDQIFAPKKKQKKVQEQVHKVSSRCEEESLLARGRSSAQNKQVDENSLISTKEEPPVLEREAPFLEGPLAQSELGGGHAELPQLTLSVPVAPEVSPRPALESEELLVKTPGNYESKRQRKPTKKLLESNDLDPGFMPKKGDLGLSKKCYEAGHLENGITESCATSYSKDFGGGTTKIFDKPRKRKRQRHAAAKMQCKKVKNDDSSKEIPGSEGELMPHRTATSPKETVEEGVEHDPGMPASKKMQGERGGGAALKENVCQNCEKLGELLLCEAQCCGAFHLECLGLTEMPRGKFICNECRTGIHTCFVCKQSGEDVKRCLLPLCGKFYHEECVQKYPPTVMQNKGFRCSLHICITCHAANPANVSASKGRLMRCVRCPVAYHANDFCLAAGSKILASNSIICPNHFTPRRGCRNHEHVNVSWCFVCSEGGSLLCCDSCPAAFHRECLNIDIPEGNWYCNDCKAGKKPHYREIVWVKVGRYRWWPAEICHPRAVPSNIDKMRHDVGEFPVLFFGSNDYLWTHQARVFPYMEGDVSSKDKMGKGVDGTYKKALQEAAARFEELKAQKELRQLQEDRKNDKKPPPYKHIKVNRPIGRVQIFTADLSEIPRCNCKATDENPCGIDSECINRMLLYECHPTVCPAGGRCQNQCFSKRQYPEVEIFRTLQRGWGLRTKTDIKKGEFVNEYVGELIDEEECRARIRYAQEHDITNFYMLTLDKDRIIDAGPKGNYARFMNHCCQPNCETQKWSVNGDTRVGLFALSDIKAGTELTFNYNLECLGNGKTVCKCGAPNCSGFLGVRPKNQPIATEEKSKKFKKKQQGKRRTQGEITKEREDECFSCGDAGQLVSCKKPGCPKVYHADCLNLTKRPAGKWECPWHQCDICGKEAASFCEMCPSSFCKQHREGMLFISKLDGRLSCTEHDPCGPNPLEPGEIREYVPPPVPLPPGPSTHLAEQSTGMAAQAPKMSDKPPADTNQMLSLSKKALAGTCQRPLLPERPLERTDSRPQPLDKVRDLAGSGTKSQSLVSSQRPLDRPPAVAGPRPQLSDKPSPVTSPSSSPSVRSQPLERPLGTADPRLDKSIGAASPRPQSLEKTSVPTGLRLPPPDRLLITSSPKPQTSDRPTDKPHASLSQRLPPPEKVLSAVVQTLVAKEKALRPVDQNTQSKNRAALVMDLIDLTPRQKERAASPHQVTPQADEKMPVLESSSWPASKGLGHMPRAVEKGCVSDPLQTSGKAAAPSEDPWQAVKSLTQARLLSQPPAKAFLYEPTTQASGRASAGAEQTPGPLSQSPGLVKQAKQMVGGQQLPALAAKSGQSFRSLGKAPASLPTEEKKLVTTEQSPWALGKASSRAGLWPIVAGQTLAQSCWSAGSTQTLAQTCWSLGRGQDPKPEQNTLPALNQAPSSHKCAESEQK
Histone-lysine N-methyltransferase NSD3, sequence (Q9BZ95 whole entry): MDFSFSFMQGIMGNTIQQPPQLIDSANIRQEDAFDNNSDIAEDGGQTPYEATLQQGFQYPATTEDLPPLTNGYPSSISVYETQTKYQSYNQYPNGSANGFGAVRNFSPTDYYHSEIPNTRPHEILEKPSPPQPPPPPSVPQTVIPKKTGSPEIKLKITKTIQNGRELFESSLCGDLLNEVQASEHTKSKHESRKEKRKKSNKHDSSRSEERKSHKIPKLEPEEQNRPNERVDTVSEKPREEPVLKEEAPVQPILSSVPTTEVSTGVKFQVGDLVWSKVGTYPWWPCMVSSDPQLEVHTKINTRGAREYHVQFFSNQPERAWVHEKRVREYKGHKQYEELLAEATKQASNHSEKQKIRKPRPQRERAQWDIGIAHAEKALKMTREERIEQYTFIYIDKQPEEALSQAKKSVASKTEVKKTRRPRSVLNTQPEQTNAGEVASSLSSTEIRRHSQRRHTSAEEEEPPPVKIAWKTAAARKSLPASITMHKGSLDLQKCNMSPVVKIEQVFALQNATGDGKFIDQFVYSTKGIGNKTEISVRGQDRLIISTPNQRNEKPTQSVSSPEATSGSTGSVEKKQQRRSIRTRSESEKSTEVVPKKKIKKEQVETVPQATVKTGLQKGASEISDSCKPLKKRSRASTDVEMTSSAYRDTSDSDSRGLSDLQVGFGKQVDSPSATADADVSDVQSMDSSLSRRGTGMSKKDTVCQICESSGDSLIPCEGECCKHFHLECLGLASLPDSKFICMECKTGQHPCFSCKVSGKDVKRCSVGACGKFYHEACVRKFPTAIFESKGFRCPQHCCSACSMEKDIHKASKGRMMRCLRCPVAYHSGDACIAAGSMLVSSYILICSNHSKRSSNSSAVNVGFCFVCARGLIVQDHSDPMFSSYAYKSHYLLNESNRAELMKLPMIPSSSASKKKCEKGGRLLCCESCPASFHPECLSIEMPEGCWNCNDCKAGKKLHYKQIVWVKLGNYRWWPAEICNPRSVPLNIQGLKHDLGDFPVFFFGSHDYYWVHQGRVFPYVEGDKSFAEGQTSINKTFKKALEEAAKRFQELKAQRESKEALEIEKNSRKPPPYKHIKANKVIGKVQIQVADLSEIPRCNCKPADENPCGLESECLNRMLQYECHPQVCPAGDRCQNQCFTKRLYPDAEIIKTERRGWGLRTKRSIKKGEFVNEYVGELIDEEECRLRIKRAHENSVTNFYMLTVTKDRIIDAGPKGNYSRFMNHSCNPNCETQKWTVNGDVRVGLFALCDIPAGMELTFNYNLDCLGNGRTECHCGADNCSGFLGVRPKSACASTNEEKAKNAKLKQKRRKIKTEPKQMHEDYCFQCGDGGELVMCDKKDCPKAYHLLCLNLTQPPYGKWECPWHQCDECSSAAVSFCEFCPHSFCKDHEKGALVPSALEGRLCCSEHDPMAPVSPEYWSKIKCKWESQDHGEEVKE

For the compound `O=S(=O)(NCc1ccccc1)c1cccc2c(NC3CCCCC3)cccc12`, the IC50 in test [1] stood at 12.6 µM.
For the compound `CN(Cc1ccccc1)S(=O)(=O)c1cccc2c(N)cccc12`, the IC50 in test [1] was over 20 µM.
`COc1cc2nc(N3CCN(C)CC3)nc(NC3CCN(Cc4ccccc4)CC3)c2cc1OC`: the results for the IC50 in test [2], in test [3] and in test [4] were 41 µM, 95 µM and 112 µM, respectively.
For the compound `Nc1cccc2c(C(=O)NCc3ccccc3)cccc12`, the IC50 in test [1] was determined as 19.4 µM.
On the same count and under the same terms, the figure for `CC(=O)N1CCC(Nc2cccc3c(S(=O)(=O)NCc4ccccc4)cccc23)CC1` is 7.5 µM; for `N#Cc1cccc(CNS(=O)(=O)c2cccc3c(N)cccc23)c1` it is over 20 µM; for `O=S(=O)(NCc1ccccc1)c1cccc2ccccc12` it is over 20 µM.
Still for that read-out and setting: the figure for `O=C(c1ccccc1)N1CCC(Nc2cccc3c(S(=O)(=O)NCc4ccccc4)cccc23)CC1` is 18 µM; for `Nc1cccc2c(S(=O)(=O)N3CCC(Cc4ccccc4)CC3)cccc12` it is over 20 µM; for `Nc1cccc2c(S(=O)(=O)Nc3ccccc3)cccc12` it is over 20 µM.
The same measure, in the same setting: in the case of `Nc1ccc2c(S(=O)(=O)NCc3ccccc3)cccc2c1` it was over 20 µM.
In the case of `Nc1ncnc2c1ncn2[C@@H]1O[C@H](CC(N)CC[C@H](N)C(=O)O)[C@@H](O)[C@H]1O` (some centres undefined), the IC50 in test [5] was determined as 26 µM.
For the compound `Nc1cccc2c(S(=O)(=O)NCc3cccs3)cccc12`, in test [1], the IC50 is 22.7 µM.
In test [5], `NNc1nc2ccccc2nc1S` had an IC50 of 3 µM.
As to `Nc1cccc2c(S(=O)(=O)NCc3ccc(F)cc3)cccc12`, the IC50 in test [1] was 14.1 µM.
In the case of `O=C(NCc1ccccc1)c1cccc2ncccc12`, the IC50 in test [1] amounted to 19.6 µM.
On the same count and under the same terms, in the case of `O=C(OCc1ccccc1)N1CCC(Nc2cccc3c(S(=O)(=O)NCc4ccccc4)cccc23)CC1` it was over 20 µM.
`CS(=O)(=O)N1CCC(Nc2cccc3c(S(=O)(=O)NCc4ccccc4)cccc23)CC1`: the IC50 in test [1] is 11.8 µM.
Regarding `O=C1O[C@@H](C(=O)N2CCN(Cc3nc4sc5c(c4c(=O)[nH]3)CCCC5)CC2)Cc2ccccc21`, the IC50 in test [5] stood at 11.2 µM.
Take `O=S(=O)(NCc1ccccc1)c1cccc2c(NC3CCNCC3)cccc12`: the IC50 in test [1] came to 10.2 µM.
Same read-out and setting: the figure for `Nc1ccc2cc(S(=O)(=O)NCc3ccccc3)ccc2c1` is over 20 µM; for `Nc1cccc2cc(S(=O)(=O)NCc3ccccc3)ccc12` it is over 20 µM.
Regarding `CCC(C)NC(CC[C@H](N)C(=O)O)C[C@H]1O[C@@H](n2cnc3c(N)ncnc32)[C@H](O)[C@@H]1O` (some centres undefined), the IC50 in test [6] is 3.3 µM. In test [7], binding was put at a Kd of 1.6 µM.
Consider `Nc1cccc2c(S(=O)(=O)NCc3ccc(C(F)(F)F)cc3)cccc12`, for which, in test [1], the IC50 came to 10.4 µM.
Still for that read-out and setting: the figure for `CN1CCC(CNS(=O)(=O)c2cccc3c(N)cccc23)CC1` is 3.4 µM; for `Nc1cccc2c(S(=O)(=O)NCc3ccc(C(=O)O)cc3)cccc12` it is over 20 µM; for `COc1ccc(CNS(=O)(=O)c2cccc3c(N)cccc23)cc1` it is 13.5 µM.
`Nc1ccc(S(=O)(=O)NCc2ccccc2)c2ccccc12`: in test [1], the concentration for half-maximal inhibition (IC50) was over 20 µM.
Still for that read-out and setting: the figure for `Nc1cccc2c(S(=O)(=O)NCC3CCCCC3)cccc12` is over 20 µM.
Still for that read-out and setting: the figure for `Nc1cccc2c(S(=O)(=O)NCC3CCCNC3)cccc12` (centres undefined) is over 20 µM; for `N#Cc1ccc(CNS(=O)(=O)c2cccc3c(N)cccc23)cc1` it is 18.1 µM.
The same measure, in the same setting: in the case of `CCN1CCC(Nc2cccc3c(S(=O)(=O)NCc4ccccc4)cccc23)CC1` it was 3.2 µM; in that of `Nc1cccc2c(S(=O)(=O)NC3CC3c3ccccc3)cccc12` (trans isomer), 19.9 µM.
In the case of `CC(C)(C)NS(=O)(=O)c1cccc2c(N)cccc12`, in test [1], the IC50 was 18.4 µM.
Same read-out and setting: in the case of `O=S(=O)(NCc1ccccc1)c1cccc2c(NCC3CC3)cccc12` it was 10.7 µM.
For the compound `Nc1cccc2c(S(=O)(=O)NCc3ccncc3)cccc12`, the IC50 in test [1] turned out to be 26 µM.
Regarding `Nc1cccc2c(S(=O)(=O)NCCc3ccccc3)cccc12`, in test [1], the IC50 was 15.4 µM.
As for `O=C(NCc1ccccc1)c1cccc2[nH]ccc12`, the IC50 in test [1] is over 20 µM.
Same read-out and setting: the figure for `CC(=O)Nc1cccc2c(S(=O)(=O)NCc3ccccc3)cccc12` is over 20 µM.
Same read-out and setting: in the case of `CN(C)c1cccc2c(S(=O)(=O)NCc3ccccc3)cccc12` it was over 20 µM; in that of `CN1CCC(Nc2cccc3c(S(=O)(=O)NCc4ccccc4)cccc23)CC1`, 6 µM.

Broadly, the IC50 is the concentration needed to halve the response being measured. A word on the Kd: it is the constant that tells how readily two partners part at equilibrium.
